The source of these data is patent US20100168176A1, “NOVEL COMPOUNDS, PHARMACEUTICAL COMPOSITIONS CONTAINING SAME, AND METHODS OF USE FOR SAME” (FASGEN LLC, priority 2006, published 2010).

The test system of test [1] is MCF-7 human breast cancer cells. Nature of the test: XTT cytotoxicity assay, MCF-7 (M). Format: cell-based. Conditions: (M) or no code, MCF-7, 72 hours; for IC50: Homo sapiens, MCF7. The method, then:
The XTT assay is a non-radioactive alternative for the [^51Cr] release cytotoxicity assay. XTT is a tetrazolium salt that is reduced to a formazan dye only by metabolically active, viable cells. The reduction of XTT is measured spectrophotometrically as OD490-OD650.
To measure the cytotoxicity of specific compounds against cancer cells, 9×10^3 MCF-7 human breast cancer cells, obtained from the American Type Culture Collection are plated per well in 96 well plates in DMEM medium with 10% fetal bovine serum, insulin, penicillin, and streptomycin. Following overnight culture at 37° C. and 5% CO2, the compounds to be tested, dissolved in DMSO, are added to the wells in 1 μl volume at the following concentrations: 80, 40, 20, 10, 5, 2.5, 1.25, and 0.625 μg/ml in triplicate. Additional concentrations are tested if required. 1 μl of DMSO is added to triplicate wells are the vehicle control. C75 is run at 40, 20, 10, […], 10, and 5 in triplicate as positive controls.
After 72 hours of incubation, cells are incubated for 4 hours with the XTT reagent as per manufacturer's instructions (Cell Proliferation Kit II (XTT) Roche). Plates are read at OD490 and OD650 on a Molecular Devices SpectraMax Plus Spectrophotometer. Three wells containing the XTT reagent without cells serve as the plate blank. XTT data are reported as OD490-OD650. Averages and standard error of the mean are computed using SOFTmax Pro software ([…]).
The IC50 for the compounds is defined as the concentration of drug leading to a 50% reduction in OD400-OD650 compared to controls. The OD400-OD650 are computed by the SOFTmax PRO software (Molecular Devices) for each compound concentration. IC50 is calculated by linear regression, plotting the FAS activity as percent of control versus drug concentrations. Linear regression, best-fit line, r^2, and 95% confidence intervals are determined using Prism Version 3.0 (Graph Pad Software).
A general note: Tetrazolium dyes change colour on reduction, which living cells bring about.

For test [2], the system named is OV. Nature of the test: XTT cytotoxicity assay, OV. It counts as cell-based.
Test [3] has as its system H. Nature of the test: Crystal violet cell growth assay, H. Format: cell-based. Conditions: read-out: Cr. Violet (IC50). The method, then: Crystal Violet Cell Growth Assay
The crystal violet assay measure cell growth but not cytotoxicity. This assay employs crystal violet staining of fixed cells in 96-well plates with subsequent solubilization and measurement of OD490 on a spectrophotometer. The OD490 corresponds to cell growth per unit time measured. Cells are treated with the compounds of interest or vehicle controls and IC50 for each compound is computed.
To measure the cytotoxicity of specific compounds against cancer cells, 5×10^4 MCF-7 human breast cancer cells, obtained from the American Type Culture Collection are plated per well in 24 well plates in DMEM medium with 10% fetal bovine serum, penicillin, and streptomycin. Following overnight culture at 37° C. and 5% CO2, the compounds to be tested, dissolved in DMSO, are added to the wells in 1 μl volume at the following concentrations: 50, 40, 30, 20, and 10 μg/ml in triplicate. Additional concentrations are tested if required. 1 μl of DMSO is added to triplicate wells are the vehicle control. C75 is run at 10, and 5 μg/ml in triplicate as positive controls.
After 72 hours of incubation, cells are stained with 0.5 ml of Crystal Violet stain (0.5% in 25% methanol) in each well. After 10 minutes, wells are rinsed, air dried, and then solubilized with 0.5 ml 10% sodium dodecylsulfate with shaking for 2 hours. Following transfer of 100 μl from each well to a 96-well plate, plates are read at OD490 on a Molecular Devices SpectraMax Plus Spectrophotometer Average OD490 values are computed using SOFTmax Pro Software (Molecular Devices) and IC50 values are determined by linear regression analysis using Prism version 3.02 (Graph Pad Software, San Diego).

For test [4], the system named is MCF-7 human breast cancer cells. Nature of the test: [14C]acetate incorporation into total lipids. It counts as cell-based. Conditions: MCF7. The method, then:
Measurement of [^14 C]acetate Incorporation into Total Lipids and Determination of IC50 of Compounds
This assay measures the incorporation of [^14C]acetate into total lipids and is a measure of fatty acid synthesis pathway activity in vitro. It is utilized to measure inhibition of fatty acid synthesis in vitro.
MCF-7 human breast cancer cells cultured as above, are plated at 5×10^4 cells per well in 24-well plates. Following overnight incubation, the compounds to be tested, solubilized in DMSO, are added at 5, 10, and 20 μg/ml in triplicate, with lower concentrations tested if necessary. DMSO is added to triplicate wells for a vehicle control. C75 is run at 5 and 10 μg/ml in triplicate as positive controls. After 4 hours of incubation, 0.25 μCi of [^14C]acetate (10 μl volume) is added to each well.
After 2 hours of additional incubation, medium is aspirated from the wells and 800 μl of chloroform:methanol (2:1) and 700 μl of 4 mM MgCl2 is added to each well. Contents of each well are transferred to 1.5 Eppendorf tubes, and spun at full-speed for 2 minutes in a high-speed Eppendorf Microcentrifuge 5415D. After removal of the aqueous (upper) layer, an additional 700 μl of chloroform:methanol (2:1) and 500 μl of 4 mM MgCl2 are added to each tube and then centrifuged for 1 minutes as above. The aqueous layer is removed with a Pasteur pipette and discarded. An additional 400 μl of chloroform:methanol (2:1) and 200 μl of 4 mM MgCl2 are added to each tube, then centrifuged and aqueous layer is discarded. The lower (organic) phase is transferred into a scintillation vial and dried at 40° C. under N2 gas. Once dried, 3 ml of scintillant (APB #NBC5104) is added and vials are counted for ^14C. The Beckman Scintillation counter calculates the average cpm values for triplicates.
The IC50 for the compounds is defined as the concentration of drug leading to a 50% reduction in [^14C]acetate incorporation into lipids compared to controls. This is determined by plotting the average cpm for each inhibitor concentration tested, performing linear regression and computing the best-fit line, r^2 values, and 95% confidence intervals. The average cpm values are computed by the Beckman scintillation counter (Model LS6500) for each compound concentration. Computation of linear regression, best-fit line, r^2, and 95% confidence intervals are calculated using Prism Version 3.0 (Graph Pad Software).

Test [5] relates to FAO. Nature of the test: FAO SC 150 / FAO Max. Conditions: for FAO Max: at the concentration given under E18.
The nature of test [6]: Weight loss screen in Balb/C mice. The conditions noted are these: 60 mg/kg intraperitoneally. Format: in vivo. The method, then:
Weight Loss Screen for Novel FAS Inhibitors
Balb/C mice (Jackson Labs) are utilized for the initial weight loss screening. Animals are housed in temperature and 12 hour day/night cycle rooms and fed mouse chow and water ad lib. Three mice are utilized for each compound tested with vehicle controls in triplicate per experiment. For the experiments, mice are housed separately for each compound tested three mice to a cage. Compounds are diluted in DMSO at 10 mg/ml and mice are injected intraperitoneally with 60 mg/kg in approximately 100 μl of DMSO or with vehicle alone. Mice are observed and weighed daily; average weights and standard errors are computed with Excel (Microsoft). The experiment continues until treated animals reach their pretreatment weights.

The subject of test [7] is Raji cells. The conditions noted are these: cited from earlier work.
Test [8] deals with rat liver acyl-CoA synthetase. Conditions: rat liver enzyme; read-out: 50% inhibition of rat liver acyl-CoA synthetase; cited from earlier work.
The target in test [9] is T1, purified human FAS (Homo sapiens, UniProt P49327).
T1 construct: Human FAS was purified from cultured ZR-75-1 human breast cancer cells; endogenous in cells; host or cells: ZR-75-1 human breast cancer cells (ATCC); Purified by hypotonic lysis, PEG precipitations and Mono Q anion exchange
T1 sequence (P49327 whole entry): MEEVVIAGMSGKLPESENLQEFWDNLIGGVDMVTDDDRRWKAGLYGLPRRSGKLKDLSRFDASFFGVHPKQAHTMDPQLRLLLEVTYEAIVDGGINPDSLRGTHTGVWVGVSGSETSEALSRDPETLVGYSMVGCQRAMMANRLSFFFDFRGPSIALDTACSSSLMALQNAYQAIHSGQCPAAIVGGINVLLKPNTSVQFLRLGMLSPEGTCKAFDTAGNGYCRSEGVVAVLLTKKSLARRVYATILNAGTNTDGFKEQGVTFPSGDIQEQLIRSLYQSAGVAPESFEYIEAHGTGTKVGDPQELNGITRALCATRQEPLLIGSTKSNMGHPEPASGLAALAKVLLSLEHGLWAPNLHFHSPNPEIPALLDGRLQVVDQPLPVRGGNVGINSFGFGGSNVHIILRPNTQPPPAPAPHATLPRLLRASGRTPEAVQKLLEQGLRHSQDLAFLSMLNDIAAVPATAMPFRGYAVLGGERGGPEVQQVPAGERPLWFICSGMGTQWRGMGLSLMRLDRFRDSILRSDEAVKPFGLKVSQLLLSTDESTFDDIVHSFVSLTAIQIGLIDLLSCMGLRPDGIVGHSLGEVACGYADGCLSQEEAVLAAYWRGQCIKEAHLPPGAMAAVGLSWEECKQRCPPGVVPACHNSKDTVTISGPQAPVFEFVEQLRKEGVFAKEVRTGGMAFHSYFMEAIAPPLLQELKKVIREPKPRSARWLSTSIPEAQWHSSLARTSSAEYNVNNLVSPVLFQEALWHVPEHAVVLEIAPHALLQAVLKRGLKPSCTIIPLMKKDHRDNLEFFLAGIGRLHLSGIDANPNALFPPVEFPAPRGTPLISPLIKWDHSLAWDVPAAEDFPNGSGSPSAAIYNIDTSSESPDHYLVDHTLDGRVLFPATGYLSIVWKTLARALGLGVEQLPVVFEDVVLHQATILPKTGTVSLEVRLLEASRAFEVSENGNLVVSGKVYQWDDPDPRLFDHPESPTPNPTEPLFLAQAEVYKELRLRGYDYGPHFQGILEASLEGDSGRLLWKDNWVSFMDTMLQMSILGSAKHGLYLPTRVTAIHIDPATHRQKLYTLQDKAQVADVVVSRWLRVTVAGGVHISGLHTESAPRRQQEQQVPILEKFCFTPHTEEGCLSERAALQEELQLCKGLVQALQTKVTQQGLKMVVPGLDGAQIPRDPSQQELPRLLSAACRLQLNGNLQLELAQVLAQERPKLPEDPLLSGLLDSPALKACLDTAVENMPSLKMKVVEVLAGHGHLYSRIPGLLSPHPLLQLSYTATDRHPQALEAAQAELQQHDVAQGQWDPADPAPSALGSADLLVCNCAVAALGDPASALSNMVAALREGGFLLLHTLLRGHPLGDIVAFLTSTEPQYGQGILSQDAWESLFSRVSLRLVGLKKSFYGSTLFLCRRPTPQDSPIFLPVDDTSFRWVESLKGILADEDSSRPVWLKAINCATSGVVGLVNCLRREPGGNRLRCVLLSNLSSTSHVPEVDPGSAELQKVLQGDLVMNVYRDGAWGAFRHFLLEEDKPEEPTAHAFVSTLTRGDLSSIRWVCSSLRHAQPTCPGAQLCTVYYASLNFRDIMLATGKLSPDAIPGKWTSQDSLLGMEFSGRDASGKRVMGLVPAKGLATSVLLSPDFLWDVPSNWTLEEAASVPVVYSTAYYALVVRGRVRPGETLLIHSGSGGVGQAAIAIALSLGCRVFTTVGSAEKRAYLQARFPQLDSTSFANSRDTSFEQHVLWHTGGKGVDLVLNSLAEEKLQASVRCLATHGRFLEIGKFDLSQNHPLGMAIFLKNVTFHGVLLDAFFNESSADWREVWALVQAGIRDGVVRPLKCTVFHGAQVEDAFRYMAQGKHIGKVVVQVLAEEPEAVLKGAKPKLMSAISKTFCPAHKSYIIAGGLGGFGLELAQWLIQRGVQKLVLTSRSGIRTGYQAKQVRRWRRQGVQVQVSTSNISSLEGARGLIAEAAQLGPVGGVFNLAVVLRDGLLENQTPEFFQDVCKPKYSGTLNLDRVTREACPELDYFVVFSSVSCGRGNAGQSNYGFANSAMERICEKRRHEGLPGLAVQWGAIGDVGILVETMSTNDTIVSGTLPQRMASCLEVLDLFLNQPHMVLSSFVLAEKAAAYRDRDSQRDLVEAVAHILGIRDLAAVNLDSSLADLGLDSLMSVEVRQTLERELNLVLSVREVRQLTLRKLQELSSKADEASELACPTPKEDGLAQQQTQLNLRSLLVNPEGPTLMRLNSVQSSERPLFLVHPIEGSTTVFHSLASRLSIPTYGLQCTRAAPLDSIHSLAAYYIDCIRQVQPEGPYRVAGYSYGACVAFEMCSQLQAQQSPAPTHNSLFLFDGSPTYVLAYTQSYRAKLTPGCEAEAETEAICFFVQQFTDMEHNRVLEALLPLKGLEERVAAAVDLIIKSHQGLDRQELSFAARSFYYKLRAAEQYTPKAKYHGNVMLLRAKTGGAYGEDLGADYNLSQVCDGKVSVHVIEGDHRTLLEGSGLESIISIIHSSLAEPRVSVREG
Nature of the test: FAS enzymatic activity (malonyl-CoA dependent NADPH oxidation, OD340). Format: biochemical. Conditions: purified human FAS from ZR-75-1 cells. Here is the method:
Purification of FAS from ZR-75-1 Human Breast Cancer Cells.
Human FAS was purified from cultured ZR-75-1 human breast cancer cells obtained from the American Type Culture Collection. The procedure, adapted from Linn et al., 1981, and Kuhajda et al., 1994, utilizes hypotonic lysis, successive polyethyleneglycol (PEG) precipitations, and anion exchange chromatography. ZR-75-1 cells are cultured at 37° C. with 5% CO2 in RPMI culture medium with 10% fetal bovine serum, penicillin and streptomycin.
Ten T150 flasks of confluent cells are lysed with 1.5 ml lysis buffer (20 mM Tris-HCl, pH 7.5, 1 mM EDTA, 0.1 mM phenylmethanesulfonyl fluoride (PMSF), 0.1% Igepal CA-630) and dounce homogenized on ice for 20 strokes. The lysate is centrifuged in JA-20 rotor (Beckman) at 20,000 rpm for 30 minutes at 4° C. and the supernatant is brought to 42 ml with lysis buffer. A solution of 50% PEG 8000 in lysis buffer is added slowly to the supernatant to a final concentration of 7.5%. After rocking for 60 minutes at 4° C., the solution is centrifuged in JA-20 rotor (Beckman) at 15,000 rpm for 30 minutes at 4° C. Solid PEG 8000 is then added to the supernatant to a final concentration of 15%. After the rocking and centrifugation is repeated as above, the pellet is resuspended overnight at 4° C. in 10 ml of Buffer A (20 mM K2HPO4, pH 7.4). […] FAS protein concentration is determined using the Coomassie Plus Protein Assay Reagent (Pierce) according to manufacturer's specifications using BSA as a standard. […]
FAS activity is measured by monitoring the malonyl-CoA dependent oxidation of NADPH spectrophotometrically at OD340 in 96-well plates (Dils et al and Arslanian et al, 1975). […]
The assay is performed on a Molecular Devices SpectraMax Plus Spectrophotometer. […] Using the kinetic protocol, the wells are blanked on duplicate wells containing 100 μl of 100 mM K2HPO4, pH 6.5 and the plate is read at OD340 at 10 sec intervals for 5 minutes to measure any malonyl-CoA independent oxidation of NADPH. […] The plate is read again as above with the kinetic protocol to measure the malonyl-CoA dependent NADPH oxidation. […]

Converted amounts (≈) assume the structure as drawn.

As to `CCCCCCCCC1(C)SC(=O)C=C1OCC(=O)NNc1ccc(C(F)(F)F)cc1` (stereo not drawn) [Compound 12, (5-Methyl-5-octyl-2-oxo-thiophen-4-yloxy)-acetic-acid-N′-(4-trifluoromethylphenyl)-hydrazide], the IC50 stood at 5.7 µg/mL (≈ 12.4 µM) in [1], 9.6 µg/mL (≈ 20.9 µM) in [2], 4.8 µg/mL (≈ 10.5 µM) in test [3] and 11.3 µg/mL (≈ 24.6 µM) in test [4]. The “FAO Max: concentration at which the maximum was seen” value (“FAO Max: concentration” below) in test [5] is given as 1.56 μg/ml ug/ml. Besides, the “FAO SC 150” value in [5] was “Neg”. Moreover, in [5], the “FAO Max” value is 118% at. Also, the “Weight Loss” value in test [6] (day 2) is on record as 60 mg/kg: 2.7% (day 2).
Take `CCCCCCCCC1(C)SC(=O)C=C1OCC(=O)NNc1cc(C(F)(F)F)ccc1Cl` (stereo not drawn) [Compound 16, (5-Methyl-5-octyl-2-oxo-thiophen-4-yloxy)-acetic-acid-N′-[2-chloro-5-(trifluoromethyl)phenyl]-hydrazide]: the IC50 in test [1] was 6 µg/mL (≈ 12.2 µM); in test [2] it was 7.2 µg/mL (≈ 14.6 µM); in [3], 5.8 µg/mL (≈ 11.8 µM); in test [4], 16.5 µg/mL (≈ 33.5 µM). In test [5], the “FAO Max: concentration” value turned out to be 6.25 µg/mL. In addition, in [5], the “FAO SC 150” value was “Neg”. The “FAO Max” value in test [5] is 137% @. For the same compound, the “Weight Loss” value in test [6] (day 3) was 60 mg/kg: 1.7 % (day 3).
In the case of `CCCC=CCC=CC=CC=NN=NO` [Triacsin C, 1-hydroxy-3-(E, E, E-2′,4′,7′-undecatrienylidine) triazene], in test [7], the “growth inhibition in Raji cells at” value was 1.0 µM. For the same compound, in [8], the IC50 is 8.7 µM.
In the case of “(5-Methyl-5-hexyl-2-oxo-thiophen-4-yloxy)-acetic-acid-M-(4-chlorophenyl)-hydrazide [Compound 21]”, the “XTT (IC50)” value in [1] is reported as 9.8 μg/ml (M) ug/ml. Moreover, the XTT (IC50) in [2] amounted to 11.2 µg/mL. Also, the “FAS (IC50)” value in test [9] is reported as “Neg”. For the same compound, in test [5], the “FAO Max: concentration” value is 0.024 μg/ml ug/ml, the “FAO SC 150” value is listed as “Neg” and the “FAO Max” value worked out at 104% at.
